Read-outs that look alike come from different tables or passages of the source.

In one assay the test system is ATF4. Briefly: ATF4 expression inhibition assay (ATF4 5'UTR luciferase reporter, Tg-stressed HEK293T cells). It counts as cell-based, human. The conditions noted are these: Homo sapiens, HEK-293T, 3 h, 100 nM thapsigargin, 3 hours, HEK293T ATF4 luciferase reporter. The method in brief: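 HEK293T stably expressing luciferase fused downstream of human full-length ATF4 5′UTR, stressed with 100 nM thapsigargin plus compound (100 nM or 1 μM; IC50 series 0.1 nM to 1 μM) for 3 h at 37° C. Luminescence normalized to Tg alone (0%) and untreated cells (100% inhibition).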

Assay [1] deals with Chinese hamster ovary (CHO) cells. Briefly: Protein translation assay (puromycin labelling, CHO cells). It is filed as cell-based. The conditions noted are these: Cricetulus griseus, CHO, media alone = 100%. The method in brief:
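CHO cells given compound 2 h at 1 μM (unstressed), or 1 h at 100 nM or 1 μM then co-treated with 300 nM Tg (stressed); 10 μg/ml puromycin pulse 30 min, anti-puromycin western blot with β-actin, densitometry. Normalized to media alone (100%) and, for stressed cells, Tg alone (0%).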

On to `O=C(NN1CCN(C[C@@H](O)COc2ccc(Cl)c(F)c2)CC1)c1ccc2cc(Cl)ccc2n1` [Compound 58, (R)-6-chloro-N-(4-(3-(4-chloro-3-fluorophenoxy)-2-hydroxypropyl)piperazin-1-yl)quinoline-2-carboxamide], for which the inhibition at 0.1 µM in the assay with ATF4 (100 nM test compound, read-out: % ATF4 inhibition at 100 nM) is 86.5%. In the assay on ATF4 (read-out: ATF4 inhbition IC50), the IC50 was 5.7 nM. Moreover, in the assay with ATF4 (1 μM test compound, read-out: % ATF4 inhibition at 1 μM), the inhibition at 1 µM turned out to be 97.6%. Also, the activity at 1 µM in assay [1] (2 h, unstressed CHO cells, 1 μM, 2 hours, read-out: % Protein synthesis in unstressed cells (1 μM test compound)) was found to be 164%; in assay [1] (CHO cells stressed with 300 nM Tg, 1 μM compound, Tg alone = 0%, read-out: % Recovery of protein expression (1 μM test compound)), 118%.

For the origin of these results see US11166942B2 (PRAXIS BIOTECH LLC, priority 2018, dated 2021).
